Molecules are shown by their SMILES.

Results on 16 compounds are retold here after US20260265238A1, “COMPOUNDS AND PHARMACEUTICAL COMPOSITIONS THAT DEGRADE SWI/SNF-RELATED MATRIX-ASSOCIATED ACTIN-DEPENDENT REGULATOR OF CHROMATIN SUBFAMILY A” (Plexium, Inc., priority 2023, published 2026).

Experiment [1] has as its target T1, SMARCA2-HiBiT HeLa cells (protein which is expressed from the SMARCA2 gene) (Homo sapiens, UniProt P51531).
T1 construct: protein which is expressed from the SMARCA2 and SMARCA4 genes; host or cells: HeLa (SMARCA2-HiBiT engineered line)
Nature of the experiment: SMARCA2 degradation assay (HiBiT-fusion HeLa cell line, 24 h, luminescence). In kind it is cell-based. The method, boiled down:
(§1)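 In this 24-hour cellular degradation readout, HiBiT-tagged HeLa lines received compound at up to typically 10 μM down to 300 pM in 10 points. After lysis with LgBiT and substrate, luminescence signals were used to build dose-response curves for DC50.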

Experiment [2] concerns the target T2, SMARCA4-HiBiT HeLa cells (protein which is expressed from the SMARCA4 gene) (Homo sapiens, UniProt P51532).
T2 construct: protein which is expressed from the SMARCA2 and SMARCA4 genes; host or cells: HeLa (SMARCA4-HiBiT engineered line)
The experiment in a line: SMARCA4 degradation assay (HiBiT-fusion HeLa cell line, 24 h, luminescence). The class given is cell-based. In a few lines: as §1

T2 sequence (P51532 whole entry): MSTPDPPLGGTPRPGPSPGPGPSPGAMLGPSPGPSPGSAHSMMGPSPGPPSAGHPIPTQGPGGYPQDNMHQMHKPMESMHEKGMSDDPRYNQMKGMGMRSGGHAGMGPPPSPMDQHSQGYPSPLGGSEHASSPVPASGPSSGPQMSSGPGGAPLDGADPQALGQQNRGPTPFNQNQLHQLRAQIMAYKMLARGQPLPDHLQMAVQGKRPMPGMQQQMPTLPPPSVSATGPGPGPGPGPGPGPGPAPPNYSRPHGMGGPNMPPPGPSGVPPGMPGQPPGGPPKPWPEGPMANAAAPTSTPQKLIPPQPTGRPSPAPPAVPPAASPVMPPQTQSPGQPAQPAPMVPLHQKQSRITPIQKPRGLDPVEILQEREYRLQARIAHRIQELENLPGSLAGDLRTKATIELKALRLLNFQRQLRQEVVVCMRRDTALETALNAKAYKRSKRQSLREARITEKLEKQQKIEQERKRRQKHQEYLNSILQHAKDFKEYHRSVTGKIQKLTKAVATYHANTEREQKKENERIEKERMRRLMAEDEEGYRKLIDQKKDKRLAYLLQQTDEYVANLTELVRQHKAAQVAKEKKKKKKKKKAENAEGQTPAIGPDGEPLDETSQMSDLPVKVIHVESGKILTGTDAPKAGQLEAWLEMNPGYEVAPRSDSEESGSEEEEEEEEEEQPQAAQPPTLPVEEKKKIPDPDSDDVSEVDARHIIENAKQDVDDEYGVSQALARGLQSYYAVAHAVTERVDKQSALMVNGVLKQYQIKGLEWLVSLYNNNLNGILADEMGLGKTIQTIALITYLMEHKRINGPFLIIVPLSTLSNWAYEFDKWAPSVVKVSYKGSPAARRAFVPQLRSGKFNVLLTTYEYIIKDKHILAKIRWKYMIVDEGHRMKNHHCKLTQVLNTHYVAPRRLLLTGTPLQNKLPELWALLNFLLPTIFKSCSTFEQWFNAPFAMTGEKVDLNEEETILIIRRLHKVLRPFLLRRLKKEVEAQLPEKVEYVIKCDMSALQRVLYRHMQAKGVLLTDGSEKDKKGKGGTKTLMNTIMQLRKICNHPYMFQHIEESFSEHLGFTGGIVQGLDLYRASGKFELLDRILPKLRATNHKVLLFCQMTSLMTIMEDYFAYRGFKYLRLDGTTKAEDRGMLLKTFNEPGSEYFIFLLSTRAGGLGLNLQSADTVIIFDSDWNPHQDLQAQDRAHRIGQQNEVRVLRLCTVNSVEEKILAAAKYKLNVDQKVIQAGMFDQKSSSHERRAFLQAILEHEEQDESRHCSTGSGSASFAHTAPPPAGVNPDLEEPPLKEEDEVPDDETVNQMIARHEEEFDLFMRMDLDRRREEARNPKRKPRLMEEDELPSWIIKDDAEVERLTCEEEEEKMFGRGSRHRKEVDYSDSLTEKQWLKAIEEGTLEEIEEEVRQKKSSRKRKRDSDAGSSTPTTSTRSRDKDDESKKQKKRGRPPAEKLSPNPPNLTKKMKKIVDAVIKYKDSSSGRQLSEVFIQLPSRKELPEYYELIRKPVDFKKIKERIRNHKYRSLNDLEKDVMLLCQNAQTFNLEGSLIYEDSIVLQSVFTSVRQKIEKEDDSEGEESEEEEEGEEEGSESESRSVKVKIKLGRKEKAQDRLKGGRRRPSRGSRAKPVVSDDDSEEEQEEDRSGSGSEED
T1 sequence (P51531 whole entry): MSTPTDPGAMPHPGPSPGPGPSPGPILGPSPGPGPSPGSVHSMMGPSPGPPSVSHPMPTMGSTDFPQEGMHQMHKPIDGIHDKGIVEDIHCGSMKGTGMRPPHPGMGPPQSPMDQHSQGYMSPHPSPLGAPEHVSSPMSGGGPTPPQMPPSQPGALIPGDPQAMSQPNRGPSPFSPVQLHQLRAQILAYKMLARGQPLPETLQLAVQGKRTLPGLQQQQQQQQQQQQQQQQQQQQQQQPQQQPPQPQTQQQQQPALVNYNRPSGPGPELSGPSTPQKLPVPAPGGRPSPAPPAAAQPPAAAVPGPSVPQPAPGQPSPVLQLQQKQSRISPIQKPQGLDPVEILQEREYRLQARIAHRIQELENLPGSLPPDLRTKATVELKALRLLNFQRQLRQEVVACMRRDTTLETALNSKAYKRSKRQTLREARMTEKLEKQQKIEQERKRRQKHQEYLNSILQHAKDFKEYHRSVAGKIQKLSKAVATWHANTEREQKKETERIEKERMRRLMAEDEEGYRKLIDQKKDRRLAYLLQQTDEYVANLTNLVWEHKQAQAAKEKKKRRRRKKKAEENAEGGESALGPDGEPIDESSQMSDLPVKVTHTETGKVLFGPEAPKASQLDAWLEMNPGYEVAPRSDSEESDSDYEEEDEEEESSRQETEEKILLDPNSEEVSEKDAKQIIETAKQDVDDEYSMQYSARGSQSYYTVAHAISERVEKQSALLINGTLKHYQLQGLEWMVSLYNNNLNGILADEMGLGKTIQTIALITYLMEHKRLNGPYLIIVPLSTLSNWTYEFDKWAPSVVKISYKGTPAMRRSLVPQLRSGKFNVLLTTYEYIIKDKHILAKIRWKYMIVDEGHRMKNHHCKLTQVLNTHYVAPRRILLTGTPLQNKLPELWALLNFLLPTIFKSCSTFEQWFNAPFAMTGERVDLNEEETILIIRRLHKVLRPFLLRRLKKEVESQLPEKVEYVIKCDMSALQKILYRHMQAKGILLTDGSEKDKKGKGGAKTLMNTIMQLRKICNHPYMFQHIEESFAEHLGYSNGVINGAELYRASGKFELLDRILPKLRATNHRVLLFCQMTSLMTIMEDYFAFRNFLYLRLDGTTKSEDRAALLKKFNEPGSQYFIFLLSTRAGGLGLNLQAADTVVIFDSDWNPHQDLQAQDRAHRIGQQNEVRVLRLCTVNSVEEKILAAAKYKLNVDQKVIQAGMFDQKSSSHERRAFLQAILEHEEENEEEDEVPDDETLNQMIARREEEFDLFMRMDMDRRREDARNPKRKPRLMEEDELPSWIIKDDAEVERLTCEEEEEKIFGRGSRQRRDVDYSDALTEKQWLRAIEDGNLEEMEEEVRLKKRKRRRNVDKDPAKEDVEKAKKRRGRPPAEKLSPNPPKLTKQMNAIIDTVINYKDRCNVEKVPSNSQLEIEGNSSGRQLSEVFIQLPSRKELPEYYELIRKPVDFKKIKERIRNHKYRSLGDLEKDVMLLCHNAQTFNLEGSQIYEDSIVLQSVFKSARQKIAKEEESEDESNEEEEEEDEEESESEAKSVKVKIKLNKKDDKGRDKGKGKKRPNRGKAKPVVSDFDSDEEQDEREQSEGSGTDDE

Turning to `COC[C@@H](C)NCC#Cc1nccc(N2CCCN(c3cc(-c4ccccc4O)nnc3N)CC2)n1` [Compound P-277, 0-{5-[4-(2-{3-[(R)-2-methoxy-1-methylethylamino]-1-propynyl}-4-pyrimidinyl)-1,4-diazepan-1-yl]-6-amino-3-pyridazinyl}phenol], in experiment [1], the DC50 is 50 to 500 nM and the “SMARCA2 % Degradation @ 1 μM” value was “++ (++=30-70%)”. In addition, in experiment [2], the DC50 fell in the range of 50 to 500 nM and the inhibition at 1 µM was in the range of 30 to 70%.

Take `CC1(NCC#Cc2nccc(N3CCCN(c4cc(-c5ccccc5O)nnc4N)CC3)n2)COC1` [Compound P-278, 0-[6-amino-5-(4-{2-[3-(3-methyl-3-oxetanylamino)-1-propynyl]-4-pyrimidinyl}-1,4-diazepan-1-yl)-3-pyridazinyl]phenol]: in experiment [1], the DC50 was in the range of 50 to 500 nM and the “SMARCA2 % Degradation @ 1 μM” value is “++ (++=30-70%)”. Besides, in experiment [2], the DC50 was in the range of 50 to 500 nM and the inhibition at 1 µM lay within 30 to 70%.

As for `C[C@H]1CCN1CC#Cc1nccc(N2CCCN(c3cc(-c4ccccc4O)nnc3N)CC2)n1` [Compound P-279, 0-{5-[4-(2-{3-[(S)-2-methyl-1-azetidinyl]-1-propynyl}-4-pyrimidinyl)-1,4-diazepan-1-y1]-6-amino-3-pyridazinyl}phenol], in experiment [1], the DC50 lay within 50 to 500 nM and the “SMARCA2 % Degradation @ 1 μM” value was “+++ (+++=>70%)”. In experiment [2], this compound had a DC50 of 50 to 500 nM and an inhibition at 1 µM of 30 to 70%.

For the compound `Nc1nnc(-c2ccccc2O)cc1N1CCN(c2ccnc(C#CCN3CCCCC3)n2)CC1` [Compound P-280, 0-(6-amino-5-{4-[2-(3-piperidino-1-propynyl)-4-pyrimidinyl]-1-piperazinyl}-3-pyridazinyl)phenol], in experiment [1], the DC50 is less than 50 nM and the “SMARCA2 % Degradation @ 1 μM” value is given as “++ (++=30-70%)”. In experiment [2], this compound returned a DC50 of less than 50 nM and an inhibition at 1 µM of less than 30%.

`Cc1nn2ccn(CC#Cc3nccc(N4CCN(c5cc(-c6ccccc6O)nnc5N)CC4)n3)c(=O)c2c1C` [Compound P-281, 5-[3-(4-{4-[3-amino-6-(o-hydroxyphenyl)-4-pyridazinyl]-1-piperazinyl}-2-pyrimidinyl)-2-propynyl]-2,3-dimethyl-1,5,7a-triaza-4(5H)-indenone]: in experiment [1], the DC50 was less than 50 nM and the “SMARCA2 % Degradation @ 1 μM” value is given as “++ (++=30-70%)”. Besides, in experiment [2], the DC50 was less than 50 nM and the inhibition at 1 µM fell in the range of 30 to 70%.

In the case of `Cc1nn2ccn(CC#Cc3nccc(N4CC5CCC(C4)N5c4cc(-c5ccccc5O)nnc4N)n3)c(=O)c2c1C` [Compound P-282, 5-[3-(4-{8-[3-amino-6-(o-hydroxyphenyl)-4-pyridaziny1]-3,8-diazabicyclo[3.2.1]oct-3-yl}-2-pyrimidinyl)-2-propynyl]-2,3-dimethyl-1,5,7a-triaza-4(5H)-indenone], in experiment [1], the DC50 is 50 to 500 nM and the “SMARCA2 % Degradation @ 1 μM” value is “++ (++=30-70%)”. Further, in experiment [2], the DC50 is 50 to 500 nM and the inhibition at 1 µM was in the range of 30 to 70%.

Turning to `Nc1nnc(-c2ccccc2O)cc1N1C2CCC1CN(c1ccnc(C#CCn3cncn3)n1)C2` [Compound P-283, 0-[6-amino-5-(3-{2-[3-(1H-1,2,4-triazol-1-yl)-1-propynyl]-4-pyrimidinyl}-3,8-diazabicyclo[3.2.1]oct-8-yl)-3-pyridazinyl]phenol], in experiment [1], the DC50 is 50 to 500 nM and the “SMARCA2 % Degradation @ 1 μM” value was “++ (++=30-70%)”. In addition, in experiment [2], the DC50 is 50 to 500 nM and the inhibition at 1 µM was less than 30%.

In the case of `Nc1nnc(-c2ccccc2O)cc1N1C2CCC1CN(c1ccnc(C#CCn3ccnc3)n1)C2` [Compound P-284, 0-[6-amino-5-(3-{2-[3-(1-imidazolyl)-1-propynyl]-4-pyrimidinyl}-3,8-diazabicyclo[3.2.1]oct-8-yl)-3-pyridazinyl]phenol], in experiment [1], the DC50 is 50 to 500 nM and the “SMARCA2 % Degradation @ 1 μM” value was “++ (++=30-70%)”. In experiment [2], this compound showed a DC50 of 500 to 5000 nM and an inhibition at 1 µM of less than 30%.

Regarding `Nc1nnc(-c2ccccc2O)cc1N1C[C@H]2C[C@@H]1CN2c1ccnc(C#CCN2CCCCC2)n1` [Compound P-285, 0-(5-{(1R,4R)-5-[2-(3-piperidino-1-propynyl)-4-pyrimidinyl]-2,5-diazabicyclo[2.2.1]hept-2-y1}-6-amino-3-pyridazinyl)phenol], in experiment [1], the DC50 was less than 50 nM and the “SMARCA2 % Degradation @ 1 μM” value was “++ (++=30-70%)”. In addition, in experiment [2], the DC50 is less than 50 nM and the inhibition at 1 µM was less than 30%.

As to `Cc1nn2ccn(CC#Cc3nccc(N4C[C@H]5C[C@@H]4CN5c4cc(-c5ccccc5O)nnc4N)n3)c(=O)c2c1C` [Compound P-286, 5-[3-(4-{(1R,4R)-5-[3-amino-6-(0-hydroxyphenyl)-4-pyridazinyl]-2,5-diazabicyclo[2.2.1]hept-2-y1}-2-pyrimidinyl)-2-propynyl]-2,3-dimethyl-1,5,7a-triaza-4(5H)-indenone], in experiment [1], the DC50 is 50 to 500 nM and the “SMARCA2 % Degradation @ 1 μM” value is “++ (++=30-70%)”. Further, in experiment [2], the DC50 is 50 to 500 nM and the inhibition at 1 µM lay in the range of 30 to 70%.

Consider `Cn1ccc(NCC#Cc2nccc(N3C4CCC3CN(c3cc(-c5ccccc5O)nnc3N)C4)n2)n1` [Compound P-287], for which, in experiment [1], the DC50 was in the range of 50 to 500 nM and the “SMARCA2 % Degradation @ 1 μM” value was “++ (++=30-70%)”. Further, in experiment [2], the 50% degradation concentration (DC50) was 50 to 500 nM and the inhibition at 1 µM was 30 to 70%.

As to `Nc1nnc(-c2ccccc2O)cc1N1CC2CCC(C1)N2c1ccnc(C#CCN2CCCCC2)n1` [Compound P-288, 0-(6-amino-5-{8-[2-(3-piperidino-1-propynyl)-4-pyrimidinyl]-3,8-diazabicyclo[3.2.1]oct-3-y1}-3-pyridazinyl)phenol], in experiment [1], the DC50 was 50 to 500 nM and the “SMARCA2 % Degradation @ 1 μM” value is listed as “++ (++=30-70%)”. In experiment [2], the DC50 is 50 to 500 nM and the inhibition at 1 µM fell in the range of 30 to 70%.

`Nc1nnc(-c2ccccc2O)cc1N1CC2CCC(C1)N2c1ccnc(C#CCn2cncn2)n1` [Compound P-289, 0-[6-amino-5-(8-{2-[3-(1H-1,2,4-triazol-1-yl)-1-propynyl]-4-pyrimidinyl}-3,8-diazabicyclo[3.2.1]oct-3-yl)-3-pyridazinyl]phenol]: in experiment [1], the DC50 lay in the range of 50 to 500 nM and the “SMARCA2 % Degradation @ 1 μM” value was “++ (++=30-70%)”. In experiment [2], the DC50 was in the range of 50 to 500 nM and the inhibition at 1 µM fell in the range of 30 to 70%.

Turning to `Nc1nnc(-c2ccccc2O)cc1N1CC2CCC(C1)N2c1ccnc(C#CCn2ccnc2)n1` [Compound P-290], in experiment [1], the DC50 lay within 50 to 500 nM and the “SMARCA2 % Degradation @ 1 μM” value is recorded as “++ (++=30-70%)”. In experiment [2], this compound displayed a DC50 of 50 to 500 nM and an inhibition at 1 µM of less than 30%.

For `CNCC#Cc1nccc(N2C3CCC2CN(c2cc(-c4ccccc4O)nnc2N)C3)n1` [Compound P-291, 0-[6-amino-5-(8-{2-[3-(methylamino)-1-propynyl]-4-pyrimidinyl}-3,8-diazabicyclo[3.2.1]oct-3-yl)-3-pyridazinyl]phenol], in experiment [1], the DC50 lay in the range of 50 to 500 nM and the “SMARCA2 % Degradation @ 1 μM” value was “++ (++=30-70%)”. For the same compound, in experiment [2], the DC50 was in the range of 50 to 500 nM and the inhibition at 1 µM was less than 30%.

Regarding `CNCC#Cc1nccc(N2CCN(c3cc(-c4ccccc4O)nnc3N)[C@@H](C)C2)n1` [Compound P-292, 0-{5-[(S)-2-methyl-4-{2-[3-(methylamino)-1-propynyl]-4-pyrimidinyl}-1-pipcrazinyl]-6-amino-3-pyridaziny1} phenol], in experiment [1], the DC50 is 50 to 500 nM and the “SMARCA2 % Degradation @ 1 μM” value is given as “++ (++=30-70%)”. In experiment [2], this compound showed a DC50 of less than 50 nM and an inhibition at 1 µM of less than 30%.
